# Source: patent US8895504B2, “Amylin derivatives” (priority 2008, dated 2014)
# *1 amine or outer side, *2 acyl side, *3 side chain or, on linkers, in order; H or OH if unused. Where a SMILES comes first, the peptide text is derived from it. Bridges are numbered along the chain shown (N, C = ends). The star is where a group is joined. C20 diacid = O=C(O)CCCCCCCCCCCCCCCCCCC(=O)*; γGlu = O=C(O)[C@H](CCC(=O)[*:2])N[*:1]; GABA = NCCCC(=O)O
# Molecular target: T1, Amylin 3(a) receptor (human calcitonin receptor (CTa) and RAMP-3) (Homo sapiens, UniProt O60896+P30988)
# T1 construct: expressed in transfected cells; host or cells: BHK570 cells, stably transfected with a CRE-luciferase reporter
# T1 sequence (O60896 24-148): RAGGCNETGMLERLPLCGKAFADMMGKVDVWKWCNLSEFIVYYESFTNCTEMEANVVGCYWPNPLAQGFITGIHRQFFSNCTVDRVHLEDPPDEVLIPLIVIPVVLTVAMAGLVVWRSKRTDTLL
# T1 sequence (P30988 25-474): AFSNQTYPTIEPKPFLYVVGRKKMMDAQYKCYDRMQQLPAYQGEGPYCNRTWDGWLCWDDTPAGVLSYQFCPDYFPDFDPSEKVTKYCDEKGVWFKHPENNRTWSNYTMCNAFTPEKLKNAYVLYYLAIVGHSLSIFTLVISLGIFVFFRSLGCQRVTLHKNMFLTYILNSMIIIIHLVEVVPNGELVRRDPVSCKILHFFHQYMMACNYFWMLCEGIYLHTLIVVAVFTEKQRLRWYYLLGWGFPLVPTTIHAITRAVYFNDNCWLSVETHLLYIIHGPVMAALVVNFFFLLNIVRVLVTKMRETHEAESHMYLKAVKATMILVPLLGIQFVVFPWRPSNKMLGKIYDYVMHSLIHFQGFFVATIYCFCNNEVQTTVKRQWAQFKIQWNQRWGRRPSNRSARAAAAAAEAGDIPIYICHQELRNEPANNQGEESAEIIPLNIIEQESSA
# Experiment: Luciferase assay (III), BHK Amylin 3(a)//CRE-luc cells
# Format: cell-based
# Details: BHK cells with Amylin 3(a) receptor and CRE luciferase reporter, 4 hours incubation; read-out: Potency Luciferase
# Outline: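 BHK570 cells stably expressing CTa, RAMP-3 and a CRE-luciferase reporter, seeded at about 20,000 cells/well and grown overnight. Cells were exposed to standard or sample for 4 h at 37° C in phenol red-free DMEM with 10% FBS and 10 mM Hepes, pH 7,4. Luminescence was read after 30 min LucLite at room temperature.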
row,EC50 [pM],Structure (SMILES)
1,100,"CC[C@H](C)[C@H](NC(=O)[C@@H]1CCCN1C(=O)CNC(=O)[C@H](Cc1ccccc1)NC(=O)[C@H](CC(N)=O)NC(=O)[C@H](CC(N)=O)NC(=O)[C@H](CO)NC(=O)[C@H](CO)NC(=O)[C@H](Cc1c[nH]cn1)NC(=O)[C@H](Cc1c[nH]cn1)NC(=O)[C@H](CC(C)C)NC(=O)[C@H](Cc1ccccc1)NC(=O)[C@H](CC(N)=O)NC(=O)[C@H](C)NC(=O)[C@H](CC(C)C)NC(=O)[C@H](CCCNC(=N)N)NC(=O)[C@H](CCC(N)=O)NC(=O)[C@@H](NC(=O)[C@H](C)NC(=O)[C@@H]1CSSC[C@H](NC(=O)[C@H](CCCNC(=N)N)NC(=O)[C@H](Cc2c[nH]cn2)NC(=O)[C@H](CCCNC(=N)N)NC(=O)[C@H](CCC(=O)O)NC(=O)CC[C@H](NC(=O)CCCCCCCCCCCCCCCCCCC(=O)O)C(=O)O)C(=O)N[C@@H](CC(N)=O)C(=O)N[C@@H]([C@@H](C)O)C(=O)N[C@@H](C)C(=O)N[C@@H]([C@@H](C)O)C(=O)N1)[C@@H](C)O)C(=O)N[C@@H](CC(C)C)C(=O)N1CCC[C@H]1C(=O)N1CCC[C@H]1C(=O)N[C@H](C(=O)N[C@@H](CC(N)=O)C(=O)N[C@H](C(=O)NCC(=O)N[C@@H](CO)C(=O)N[C@@H](CC(N)=O)C(=O)N[C@H](C(=O)N[C@@H](Cc1ccc(O)cc1)C(N)=O)[C@@H](C)O)C(C)C)[C@@H](C)O [Example 69, N-alpha-[(S)-4-Carboxy-4-(19-carboxynonadecanoylamino)butyryl]-Glu-Arg-His-[Arg1,His17]-pramlintide] ({C20 diacid-γGlu}-ERHRCNTATCATQRLANFLHHSSNNFGPILPPTNVGSNTY-NH2; disulfide 5-10)"
2,100,"CC[C@H](C)[C@H](NC(=O)[C@@H]1CCCN1C(=O)CNC(=O)[C@H](Cc1ccccc1)NC(=O)[C@H](CC(N)=O)NC(=O)[C@H](CC(N)=O)NC(=O)[C@H](CO)NC(=O)[C@H](CO)NC(=O)[C@H](Cc1c[nH]cn1)NC(=O)[C@H](Cc1c[nH]cn1)NC(=O)[C@H](CC(C)C)NC(=O)[C@H](Cc1ccccc1)NC(=O)[C@H](CC(=O)O)NC(=O)[C@H](C)NC(=O)[C@H](CC(C)C)NC(=O)[C@H](CCCNC(=N)N)NC(=O)[C@H](CCC(N)=O)NC(=O)[C@@H](NC(=O)[C@H](C)NC(=O)[C@@H]1CSSC[C@H](NC(=O)CC[C@H](NC(=O)CCCCCCCCCCCCCCCCCCC(=O)O)C(=O)O)C(=O)N[C@@H](CC(N)=O)C(=O)N[C@@H]([C@@H](C)O)C(=O)N[C@@H](C)C(=O)N[C@@H]([C@@H](C)O)C(=O)N1)[C@@H](C)O)C(=O)N[C@@H](CC(C)C)C(=O)N1CCC[C@H]1C(=O)N1CCC[C@H]1C(=O)N[C@H](C(=O)N[C@@H](CC(N)=O)C(=O)N[C@H](C(=O)NCC(=O)N[C@@H](CO)C(=O)N[C@@H](CC(N)=O)C(=O)N[C@H](C(=O)N[C@@H](Cc1ccc(O)cc1)C(N)=O)[C@@H](C)O)C(C)C)[C@@H](C)O [Example 43, N-alpha-[(S)-4-Carboxy-4-(19-carboxynonadecanoylamino)butyryl]-[Asp14,His17]-pramlintide (2-37)] ({C20 diacid-γGlu}-CNTATCATQRLADFLHHSSNNFGPILPPTNVGSNTY-NH2; disulfide 1-6)"
3,50,"CC[C@H](C)[C@H](NC(=O)[C@@H]1CCCN1C(=O)CNC(=O)[C@H](Cc1ccccc1)NC(=O)[C@H](CC(N)=O)NC(=O)[C@H](CC(N)=O)NC(=O)[C@H](CO)NC(=O)[C@H](CO)NC(=O)[C@H](Cc1c[nH]cn1)NC(=O)[C@H](Cc1c[nH]cn1)NC(=O)[C@H](CC(C)C)NC(=O)[C@H](Cc1ccccc1)NC(=O)[C@H](CC(N)=O)NC(=O)[C@H](C)NC(=O)[C@H](CC(C)C)NC(=O)[C@H](CCCNC(=N)N)NC(=O)[C@H](CCC(N)=O)NC(=O)[C@@H](NC(=O)[C@H](C)NC(=O)[C@@H]1CSSC[C@H](NC(=O)[C@H](Cc2c[nH]cn2)NC(=O)[C@H](CCCNC(=N)N)NC(=O)[C@H](Cc2c[nH]cn2)NC(=O)CC[C@H](NC(=O)CCCCCCCCCCCCCCCCCCC(=O)O)C(=O)O)C(=O)N[C@@H](CC(N)=O)C(=O)N[C@@H]([C@@H](C)O)C(=O)N[C@@H](C)C(=O)N[C@@H]([C@@H](C)O)C(=O)N1)[C@@H](C)O)C(=O)N[C@@H](CC(C)C)C(=O)N1CCC[C@H]1C(=O)N1CCC[C@H]1C(=O)N[C@H](C(=O)N[C@@H](CC(N)=O)C(=O)N[C@H](C(=O)NCC(=O)N[C@@H](CO)C(=O)N[C@@H](CC(N)=O)C(=O)N[C@H](C(=O)N[C@@H](Cc1ccc(O)cc1)C(N)=O)[C@@H](C)O)C(C)C)[C@@H](C)O [Example 72, N-alpha-[(S)-4-Carboxy-4-(19-carboxynonadecanoylamino)butyryl]-His-Arg-[His1,His17]-pramlintide] ({C20 diacid-γGlu}-HRHCNTATCATQRLANFLHHSSNNFGPILPPTNVGSNTY-NH2; disulfide 4-9)"
4,60,"CC(C)C[C@H](NC(=O)[C@H](CCCNC(=N)N)NC(=O)[C@H](CCC(N)=O)NC(=O)[C@@H](NC(=O)[C@H](C)NC(=O)[C@@H]1CSSC[C@H](NC(=O)[C@H](CCC(=O)O)NC(=O)[C@H](CCCNC(=N)N)NC(=O)[C@H](CCC(=O)O)NC(=O)CC[C@H](NC(=O)CCCCCCCCCCCCCCCCCCC(=O)O)C(=O)O)C(=O)N[C@@H](CC(N)=O)C(=O)N[C@@H]([C@@H](C)O)C(=O)N[C@@H](C)C(=O)N[C@@H]([C@@H](C)O)C(=O)N1)[C@@H](C)O)C(=O)N[C@@H](C)C(=O)N[C@@H](CC(=O)O)C(=O)N[C@@H](Cc1ccccc1)C(=O)N[C@@H](CC(C)C)C(=O)N[C@@H](Cc1c[nH]cn1)C(=O)N[C@@H](Cc1c[nH]cn1)C(=O)N[C@@H](CO)C(=O)N[C@@H](CO)C(=O)N[C@@H](CCC(N)=O)C(=O)N[C@@H](CC(N)=O)C(=O)N[C@@H](Cc1ccccc1)C(=O)NCC(=O)N[C@@H](C)C(=O)N1CCC[C@H]1C(=O)N[C@@H](CC(C)C)C(=O)N[C@@H](CO)C(=O)N[C@@H](CO)C(=O)N[C@H](C(=O)N[C@@H](CC(N)=O)C(=O)N[C@H](C(=O)NCC(=O)N[C@@H](CO)C(=O)N[C@@H](CC(N)=O)C(=O)N[C@H](C(=O)N[C@@H](Cc1ccc(O)cc1)C(N)=O)[C@@H](C)O)C(C)C)[C@@H](C)O [Example 48, N-alpha-[(S)-4-Carboxy-4-(19-carboxynonadecanoylamino)butyryl]-Glu-Arg-[Glu1,Asp14,His17,Gln21,Ala25,Pro26,Ser28,Ser29]-pramlintide] ({C20 diacid-γGlu}-ERECNTATCATQRLADFLHHSSQNFGAPLSSTNVGSNTY-NH2; disulfide 4-9)"
5,100,"CC[C@H](C)[C@H](NC(=O)[C@@H]1CCCN1C(=O)CNC(=O)[C@H](Cc1ccccc1)NC(=O)[C@H](CC(N)=O)NC(=O)[C@H](CC(N)=O)NC(=O)[C@H](CO)NC(=O)[C@H](CO)NC(=O)[C@H](Cc1c[nH]cn1)NC(=O)[C@H](CCCNC(=N)N)NC(=O)[C@H](CC(C)C)NC(=O)[C@H](Cc1ccccc1)NC(=O)[C@H](CC(N)=O)NC(=O)[C@H](C)NC(=O)[C@H](CC(C)C)NC(=O)[C@H](CCCNC(=N)N)NC(=O)[C@H](CCC(N)=O)NC(=O)[C@@H](NC(=O)[C@H](C)NC(=O)[C@@H]1CSSC[C@H](NC(=O)[C@H](Cc2c[nH]cn2)NC(=O)[C@H](Cc2c[nH]cn2)NC(=O)CC[C@H](NC(=O)CCCCCCCCCCCCCCCCCCC(=O)O)C(=O)O)C(=O)N[C@@H](CC(N)=O)C(=O)N[C@@H]([C@@H](C)O)C(=O)N[C@@H](C)C(=O)N[C@@H]([C@@H](C)O)C(=O)N1)[C@@H](C)O)C(=O)N[C@@H](CC(C)C)C(=O)N1CCC[C@H]1C(=O)N1CCC[C@H]1C(=O)N[C@H](C(=O)N[C@@H](CC(N)=O)C(=O)N[C@H](C(=O)NCC(=O)N[C@@H](CO)C(=O)N[C@@H](CC(N)=O)C(=O)N[C@H](C(=O)N[C@@H](Cc1ccc(O)cc1)C(N)=O)[C@@H](C)O)C(C)C)[C@@H](C)O [Example 35, N-alpha-[(S)-4-Carboxy-4-(19-carboxynonadecanoylamino)butyryl]-His-[His1,Arg17]-pramlintide] ({C20 diacid-γGlu}-HHCNTATCATQRLANFLRHSSNNFGPILPPTNVGSNTY-NH2; disulfide 3-8)"
6,60,"CC[C@H](C)[C@H](NC(=O)[C@@H]1CCCN1C(=O)CNC(=O)[C@H](Cc1ccccc1)NC(=O)[C@H](CC(N)=O)NC(=O)[C@H](CC(N)=O)NC(=O)[C@H](CO)NC(=O)[C@H](CO)NC(=O)[C@H](Cc1c[nH]cn1)NC(=O)[C@H](Cc1c[nH]cn1)NC(=O)[C@H](CC(C)C)NC(=O)[C@H](Cc1ccccc1)NC(=O)[C@H](CC(N)=O)NC(=O)[C@H](C)NC(=O)[C@H](CC(C)C)NC(=O)[C@H](CCCNC(=N)N)NC(=O)[C@H](CCC(N)=O)NC(=O)[C@@H](NC(=O)[C@H](C)NC(=O)[C@@H]1CSSC[C@H](NC(=O)CCCNC(=O)CCCCCCCCCCCCCCCCCCC(=O)O)C(=O)N[C@@H](CC(N)=O)C(=O)N[C@@H]([C@@H](C)O)C(=O)N[C@@H](C)C(=O)N[C@@H]([C@@H](C)O)C(=O)N1)[C@@H](C)O)C(=O)N[C@@H](CC(C)C)C(=O)N1CCC[C@H]1C(=O)N1CCC[C@H]1C(=O)N[C@H](C(=O)N[C@@H](CC(N)=O)C(=O)N[C@H](C(=O)NCC(=O)N[C@@H](CO)C(=O)N[C@@H](CC(N)=O)C(=O)N[C@H](C(=O)N[C@@H](Cc1ccc(O)cc1)C(N)=O)[C@@H](C)O)C(C)C)[C@@H](C)O [Example 30, N-alpha-[4-(19-Carboxynonadecanoylamino)butyryl]-[His17]-pramlintide (2-37)] ({C20 diacid-GABA}-CNTATCATQRLANFLHHSSNNFGPILPPTNVGSNTY-NH2; disulfide 1-6)"
